Assays:
[1] = target: CDK2/Cyclin E1 full length (Homo sapiens (Human), UniProt P24941); assay: CDK2/Cyclin E1 Full Length ADP-Glo Kinase Assay; type: biochemical; conditions: 20 uM ATP, read-out: CDK2/ CyclinE1 IC50
Experimental: CDK2/Cyclin E1 Full Length ADP-Glo Kinase Assay
(§1) The purpose of CDK2/Cyclin E1 assay is to evaluate the inhibition (% inhibition and IC50 values) of small molecule inhibitors by using a Luminescent based ADP-Glo assay. CDK2/Cyclin E1 full length catalyzes the production of ADP from ATP. ADP-Glo assay monitors ADP producing biochemical reactions. ADP-Glo is performed in 2 steps upon completion of kinase reaction: a combined termination of kinase reaction and depletion of remaining ATP in the first step, and conversion of generated ADP to ATP and the newly produced ATP to light output using luciferase/luciferin reaction in the second step. The luminescent signal generated is proportional to the ADP concentration produced and is correlated with the kinase activity. CDK2/Cyclin E1 was purchased from Eurofins (Cat 14-475M). Typical reaction solutions (10 uL final reaction volume) contained 2% DMSO (f inhibitor), 10 mM MgCI2, 1 mM EGTA, 0.05% BSA, 2 mM DTT, 20 uM ATP (ATP Km=64.78 uM), 0.01% Brig-35, 0.75 uM substrate, and 0.328 nM wild-type full length CDK2/Cyclin E1 enzyme complex in 50 mM HEPES buffer at pH 7.5. The assay was initiated with the addition of ATP-containing substrate solution, following a 30-minute pre-incubation of enzyme and inhibitor at room temperature in the reaction mixture. The reaction was stopped after 90 minutes at room temperature by the addition of 10 uL of ADP-GLO Reagent. After a 90 minute incubation, 20 uL of Kinase Detection Reagent was added. Samples were incubated for 40 minutes, after which plate well luminescence was measured on a Envision microplate reader. The IC50 determinations were made from a plot of the fractional velocity as a function of inhibitor concentration fit to the 4 parameters IC50 equation.

CDK6/Cyclin D3 = CDK6/Cyclin D3 (Homo sapiens (Human), UniProt Q00534); assay: CDK6/Cyclin D3 ADP-Glo Kinase Assay; type: biochemical; conditions: 100 uM ATP, read-out: CDK6/ CyclinD3 IC50
Experimental: CDK6/Cyclin D3 ADP-Glo Kinase Assay
as §1, with “of the CDK6/Cyclin D3” for “of CDK2/Cyclin E1”, “values) in the presence” for “values)”, “assay. CDK6/Cyclin D3” for “assay. CDK2/Cyclin E1 full length”, “activity. CDK6/Cyclin D3” for “activity. CDK2/Cyclin E1”, “from Carna. […]” for “from Eurofins (Cat 14-475M). Typical reaction solutions (10 uL final reaction volume) contained 2% DMSO (f inhibitor), 10 mM MgCI2, 1 mM EGTA, 0.05% BSA, 2 mM DTT, 20 uM ATP (ATP Km=64.78 uM), 0.01% Brig-35, 0.75 uM substrate, and 0.328 nM wild-type full length CDK2/Cyclin E1 enzyme complex in 50 mM HEPES buffer at pH 7.5.”, “a 90-minute” for “a 90 minute”

MCF-7 cells = assay: Cell Growth Inhibition, MCF-7 (CellTiterGlo, 6 days); type: cell-based; conditions: Homo sapiens, MCF7, 144 h; MCF-7, 6-day treatment, CellTiterGlo 2.0
From the text: (§2) MCF-7 and OVCAR-3 cells were used to evaluate the anti-proliferation activity of the CDK inhibitors. MCF-7 (ATCC, HTB-22) cells are epithelial cells from a patient with ER+ metastatic adenocarcinoma. OVCAR-3 (ATCC, HTB-161) cells were derived from malignant ascites of a patient with ovarian cancer and are known to have CCNE1 amplification. Both cell lines were maintained in RPMI media supplemented with 10% fetal bovine serum. For cell growth inhibition assay, CDK inhibitors in DMSO solution were dispensed with either Echo 655 (Beckman Coulter) or Tecan D300e (HP) into 384-well plates (Corning #3765) and the 384-well plates were UV-sterilized prior to the assay. The inhibitors were typically tested in the 10-10,000 nM concentration range with half-log serial dilutions. MCF-7 or OVCAR-3 (500 cells/30 μL/well) were added to each well using Multidrop Combi (ThermoFisher) using standard cassettes. The assay plates with cells were cultured at 37° C., 5% CO2 for 6 days. At the end of the 6-day treatment, 30 μL of CellTiterGlo 2.0 (Promega) was added to each well and the luminescent signal was read using CLARIOstar plus (BMG). The percentage of cell growth inhibition (% CGI) was calculated using the following formula % CGI=100−100×luminescencesample/luminescencecontrol. The half maximal inhibitory concentration (IC50) was determined by nonlinear curve fitting (four parameters, variable slope).

OVCAR-3 cells = assay: Cell Growth Inhibition, OVCAR-3 (CellTiterGlo, 6 days); type: cell-based; conditions: Homo sapiens, 144 h; OVCAR-3, 6-day treatment, CellTiterGlo 2.0
From the text: as §2

CDK1/Cyclin B1 = CDK1/Cyclin B1 (Homo sapiens (Human), UniProt P06493); assay: CDK1/Cyclin B1 ADP-Glo Kinase Assay; type: biochemical; conditions: 80 uM ATP
Experimental: CDK1/Cyclin B1 ADP-Glo Kinase Assay
The purpose of CDK1/Cyclin B1 assay is to evaluate the inhibition (% inhibition and IC50 values) of small molecule inhibitors by using a Luminescent based ADP-Glo assay. CDK1/Cyclin B1 catalyzes the production of ADP from ATP. ADP-Glo assay monitors ADP producing biochemical reactions. ADP-Glo is performed in 2 steps upon completion of kinase reaction: a combined termination of kinase reaction and depletion of remaining ATP in the first step, and conversion of generated ADP to ATP and the newly produced ATP to light output using luciferase/luciferin reaction in the second step. The luminescent signal generated is proportional to the ADP concentration produced and is correlated with the kinase activity. CDK1/Cyclin B1 was purchased from Carna (Cat 04-102). Typical reaction solutions (10 uL final reaction volume) contained 2% DMSO (f inhibitor), 10 mM MgCl2, 1 mM EGTA, 0.05% BSA, 2 mM DTT, 80 uM ATP (ATP Km=78.6 uM), 0.01% Brig-35, 0.75 uM substrate, and 4.917 nM CDK1/Cyclin Bl enzyme complex in 50 mM HEPES buffer at pH 7.5. The assay was initiated with the addition of ATP-containing substrate solution, following a 30-minute pre-incubation of enzyme and inhibitor at room temperature in the reaction mixture. The reaction was stopped after 90 minutes at room temperature by the addition of 10 uL of ADP-GLO Reagent. After a 90 minute incubation, 20 uL of Kinase Detection Reagent was added. Samples were incubated for 40 minutes, after which plate well luminescence was measured on a Envision microplate reader. The IC50 determinations were made from a plot of the fractional velocity as a function of inhibitor concentration fit to the 4 parameters IC50 equation.

CDK4/Cyclin D1 = CDK4/Cyclin D1 (Homo sapiens (Human), UniProt P11802); assay: CDK4/Cyclin D1 CHEF Assay (AQT0258 peptide); type: biochemical; conditions: 200 uM ATP, read-out: CDK4/ CyclinD1 AQT IC50
From the text: CDK4/Cyclin D1 CHEF Assay
The purpose of CDK4/Cyclin Dl assay is to evaluate the inhibition (% inhibition and IC50 values) of small molecule inhibitors by using a Chelation-Enhance Fluorescence (CHEF) assay. In a CHEF assay, phosphorylation of a peptide substrate results in proportional increase in fluorescence. CHEF kinase assay use peptide substrates containing a synthetic alpha-amino acid with a side chain bearing an 8-hydroxyquinoline derivative (sulfonamido-oxide, Sox). Upon phosphorylation of a nearby serine, threonine or tyrosine and in the presence of Mg(II), the spectral properties of the Sox residue are altered, emitting 485 nm wavelength light when excited with a 360 nm wavelength light source. CDK4/Cyclin D1 catalyzes the phosphoryl transfer to the SOX-labeled substrate peptide AQT0258 from Assayquant Technologies. Typical reaction solutions contained 2% DMSO (+/−inhibitor), 10 mM MgCl2, 1 mM DTT, 200 uM ATP (ATP Km=195.2 uM), 0.012% Brig-35, 10 uM AQT0258 peptide, 0.02% BSA, 1% Glycerol, 0.55 mM EGTA, 2.5 nM CDK4/Cyclin D1 in 54 mM HEPES buffer at pH 7.5. The reaction was initiated with the addition of substrate solution, following a 30-minute pre-incubation of enzyme and inhibitor at 22° C. in the reaction mix. Reactions were allowed to proceed for 3 hrs at 22° C., followed by fluorescence read of the reaction. The IC50 determinations were made from a plot of the fractional velocity as a function of inhibitor concentration fit to the 4 parameters IC50 equation.

Chain of CDK4/Cyclin D1 (P11802 whole entry): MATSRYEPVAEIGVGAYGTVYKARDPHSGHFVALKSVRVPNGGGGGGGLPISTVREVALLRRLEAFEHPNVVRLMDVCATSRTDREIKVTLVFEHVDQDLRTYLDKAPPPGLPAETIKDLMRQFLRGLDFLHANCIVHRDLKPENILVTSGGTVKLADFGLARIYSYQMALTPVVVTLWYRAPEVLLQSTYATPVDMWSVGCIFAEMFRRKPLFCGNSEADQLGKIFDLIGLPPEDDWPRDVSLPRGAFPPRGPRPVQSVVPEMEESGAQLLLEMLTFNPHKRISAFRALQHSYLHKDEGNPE
Chain of CDK4/Cyclin D1 (P24385 whole entry partner): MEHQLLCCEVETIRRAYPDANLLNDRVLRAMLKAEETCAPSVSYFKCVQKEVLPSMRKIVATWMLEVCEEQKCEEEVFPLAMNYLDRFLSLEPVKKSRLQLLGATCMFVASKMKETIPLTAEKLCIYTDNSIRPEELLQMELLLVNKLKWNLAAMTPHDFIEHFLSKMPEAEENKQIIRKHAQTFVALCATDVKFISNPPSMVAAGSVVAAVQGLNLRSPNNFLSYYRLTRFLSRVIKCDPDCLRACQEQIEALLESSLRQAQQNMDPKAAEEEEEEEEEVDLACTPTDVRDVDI
Chain of CDK1/Cyclin B1 (P06493 whole entry): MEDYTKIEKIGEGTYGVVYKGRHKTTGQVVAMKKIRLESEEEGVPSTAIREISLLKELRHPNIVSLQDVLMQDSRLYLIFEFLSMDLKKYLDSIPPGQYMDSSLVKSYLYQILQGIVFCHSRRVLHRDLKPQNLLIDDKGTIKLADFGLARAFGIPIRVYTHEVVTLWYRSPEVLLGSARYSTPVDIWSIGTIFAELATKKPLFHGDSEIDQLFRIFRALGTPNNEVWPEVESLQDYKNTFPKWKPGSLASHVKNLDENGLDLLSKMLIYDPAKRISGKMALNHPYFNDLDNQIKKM
Chain of CDK1/Cyclin B1 (P14635 whole entry partner): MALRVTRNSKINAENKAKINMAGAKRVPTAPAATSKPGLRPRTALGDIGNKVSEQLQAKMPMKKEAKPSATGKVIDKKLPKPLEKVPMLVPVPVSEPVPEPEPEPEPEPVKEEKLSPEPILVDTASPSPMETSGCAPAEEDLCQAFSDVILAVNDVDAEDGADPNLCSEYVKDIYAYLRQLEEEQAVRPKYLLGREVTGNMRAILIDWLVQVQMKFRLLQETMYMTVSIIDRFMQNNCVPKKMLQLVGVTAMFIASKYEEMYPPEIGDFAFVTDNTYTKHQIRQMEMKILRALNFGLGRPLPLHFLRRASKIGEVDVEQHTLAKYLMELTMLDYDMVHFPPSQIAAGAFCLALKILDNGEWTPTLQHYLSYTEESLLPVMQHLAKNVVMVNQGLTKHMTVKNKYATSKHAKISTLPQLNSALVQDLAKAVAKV
Chain of CDK6/Cyclin D3 (Q00534 whole entry): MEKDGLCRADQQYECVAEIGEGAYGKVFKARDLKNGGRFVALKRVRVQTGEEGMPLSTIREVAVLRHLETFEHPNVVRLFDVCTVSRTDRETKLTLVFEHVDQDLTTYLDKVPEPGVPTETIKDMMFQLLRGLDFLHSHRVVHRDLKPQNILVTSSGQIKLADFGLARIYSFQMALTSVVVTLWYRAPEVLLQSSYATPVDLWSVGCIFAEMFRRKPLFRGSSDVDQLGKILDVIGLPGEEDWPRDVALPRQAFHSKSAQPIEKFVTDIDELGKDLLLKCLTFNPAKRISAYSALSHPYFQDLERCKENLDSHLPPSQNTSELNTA
Chain of CDK6/Cyclin D3 (P30281 whole entry partner): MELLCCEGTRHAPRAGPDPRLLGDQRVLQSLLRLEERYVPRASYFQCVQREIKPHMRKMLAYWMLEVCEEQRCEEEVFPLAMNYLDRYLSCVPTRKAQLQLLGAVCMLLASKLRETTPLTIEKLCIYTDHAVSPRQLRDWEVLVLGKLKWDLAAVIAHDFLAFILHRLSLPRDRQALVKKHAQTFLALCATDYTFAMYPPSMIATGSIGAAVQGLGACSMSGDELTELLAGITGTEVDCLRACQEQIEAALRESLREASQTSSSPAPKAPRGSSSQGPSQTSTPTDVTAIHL

IC50 [1] [nM] | IC50 (CDK6/Cyclin D3) [nM] | IC50 (MCF-7 cells) [nM] | IC50 (OVCAR-3 cells) [nM] | IC50 (CDK1/Cyclin B1) [nM] | IC50 (CDK4/Cyclin D1) [nM] | SMILES
< 200 | < 200 |  |  | < 200 | < 200 | CS(=O)(=O)N1CCC(Nc2ncc3cccc(C4CC5(CNCC5(F)F)C4)c3n2)CC1 (stereo not shown) [Example 122, 8-(8,8-difluoro-6-azaspiro[3.4]octan-2-yl)-N-(1-(methylsulfonyl)piperidin-4-yl)quinazolin-2-amine]
< 200 | < 200 |  |  | < 200 | < 200 | COC1CC2(C1)CC(c1cc(C(F)F)cc3cnc(NC4CCN(S(C)(=O)=O)CC4)nc13)C2 (stereo not shown) [Example 108, 6-(difluoromethyl)-8-(6-methoxyspiro[3.3]heptan-2-yl)-N-(1-(methylsulfonyl)piperidin-4-yl)quinazolin-2-amine]
< 200 | < 200 |  | > 2000 | 500 to 2000 | < 200 | CS(=O)(=O)N1CC[C@@H](Nc2ncc3cc(C(F)F)cc(N4CC(F)(F)C5(CNC5)C4)c3n2)[C@H](O)C1 (racemic) [Example 118, (3R,4R)-4-((8-(8,8-difluoro-2,6-diazaspiro[3.4]octan-6-yl)-6-(difluoromethyl)quinazolin-2-yl)amino)-1-(methylsulfonyl)piperidin-3-ol]
< 200 | < 200 |  | 500 to 2000 | < 200 | < 200 | Cn1cc(S(=O)(=O)N2CCC(Nc3ncc4cccc(N5CC(O)(C(F)F)C5)c4n3)CC2)cn1 [Example 119, 3-(difluoromethyl)-1-(2-((1-((1-methyl-1H-pyrazol-4-yl)sulfonyl)piperidin-4-yl)amino)quinazolin-8-yl)azetidin-3-ol]
< 200 | < 200 |  |  | 500 to 2000 | < 200 | COC1CC2(C1)CC(c1cccc3cnc(NC4CCN(S(C)(=O)=O)CC4)nc13)C2 (stereo not shown) [Example 107, 8-(6-methoxyspiro[3.3]heptan-2-yl)-N-(1-(methylsulfonyl)piperidin-4-yl)quinazolin-2-amine]

The remaining lines, values behind:

SMILES | IC50 [1] [nM] | IC50 (CDK6/Cyclin D3) [nM] | IC50 (MCF-7 cells) [nM] | IC50 (OVCAR-3 cells) [nM] | IC50 (CDK1/Cyclin B1) [nM] | IC50 (CDK4/Cyclin D1) [nM]
CS(=O)(=O)N1CCC(Nc2ncc3cccc(C4CC5(CCNC5)C4)c3n2)CC1 (stereo not shown) [Example 99, N-(1-(methylsulfonyl)piperidin-4-yl)-8-(6-azaspiro[3.4]octan-2-yl)quinazolin-2-amine] | < 200 | < 200 | 500 to 2000 | 200 to 500 | < 200 | < 200
CS(=O)(=O)N1CCC(Nc2ncc3cc(C(F)F)cc(N4CC5(CCNCC5(F)F)C4)c3n2)CC1 [Example 94, 8-(5,5-difluoro-2,7-diazaspiro[3.5]nonan-2-yl)-6-(difluoromethyl)-N-(1-(methylsulfonyl)piperidin-4-yl)quinazolin-2-amine] | < 200 | < 200 | 500 to 2000 | 500 to 2000 | < 200 | < 200
CS(=O)(=O)N1CCC(Nc2ncc3cc(C(F)F)cc(C4CC5(CCN(CCC(F)(F)F)C5)C4)c3n2)CC1 (stereo not shown) [Example 101, 6-(difluoromethyl)-N-(1-(methylsulfonyl)piperidin-4-yl)-8-(6-(3,3,3-trifluoropropyl)-6-azaspiro[3.4]octan-2-yl)quinazolin-2-amine] | < 200 | < 200 | 200 to 500 | 500 to 2000 | < 200 | < 200
CC(=O)N1CCC2(CCC(c3cccc4cnc(NC5CCN(S(C)(=O)=O)CC5)nc34)C2)C1 (stereo not shown) [Example 35] | < 200 | < 200 | 500 to 2000 | > 2000 | 200 to 500 | 
CN1CC2(CC(c3cc(C(F)F)cc4cnc(NC5CCN(S(C)(=O)=O)CC5)nc34)C2)C1 [Example 67, 6-(difluoromethyl)-8-(2-methyl-2-azaspiro[3.3]heptan-6-yl)-N-(1-(methylsulfonyl)piperidin-4-yl)quinazolin-2-amine] | < 200 |  | < 200 | < 200 | < 200 | 

— patent US20240092761A1, “QUINAZOLINE COMPOUNDS AND METHODS OF USE” (IAMBIC THERAPEUTICS, INC., priority 2022, published 2024)
